In US11413267B2, “Methods and compositions for inhibition of ATR and FANCD2 activation” (priority 2012, dated 2022):
Marks after values point to notes of the source that are not given here.

System: CHO cells
Experiment: In vitro chromosome aberration test
Format: cell-based, Chinese Hamster
Conditions: for Average aberrant metaphases (%) / Chromatid break (No.) / Chromatid deletion / Complex rerrangement / Dicentric / Polyploid / Pulverized cell / Quadriradial / Ring / Triradial: Chinese hamster, 20 h
Method: To test this hypothesis, we investigated the cytogenetic effect of Protoapigenone (I-1) on CHO cells (FIG. 1).
In brief, 5×10^5 Chinese Hamster Ovary (CHO) cells were seeded in 60-mm dishes 1 d before the experiment. Protoapigenone (I-1)-induced structural chromosomal changes after 20 h were compared with that of the cells cultured in 2 μM mitomycin C. At 18 h after Protoapigenone (I-1), 0.1 μg/mL colchicine was added for 2 h, and metaphase cells were collected by shaking them off the dishes. Mitotic cells were treated with 0.5% KCl for 10 min and fixed with a 3:1 mixture of methanol: glacial acetic acid. The cells were then spread on slides for chromosome staining with 5% Giemsa solution. We then analyzed the chromosome structure of 200 well-spread metaphase cells (100 metaphase cells/experiment) under a 100× oil immersion objective.

Structure (SMILES): O=C1C=CC(O)(c2cc(=O)c3c(O)cc(O)cc3o2)C=C1 [Compound I-1, Protoapigenone]
- Chromosomal structural changes (breakages, radials, polyploidy), in words: dose-dependent increases
- Obtaining complete mitotic chromosome: complete mitotic chromosome could not be obtained
- Average aberrant metaphases (%) (2.17 μM): 6.5 * %
- Chromatid break (No.) (2.17 μM): 2 No.
- Chromatid deletion (2.17 μM): 0 No.
- Complex rerrangement (2.17 μM): 0 No.
- Dicentric (2.17 μM): 0 No.
- Polyploid (2.17 μM): 3 No.
- Pulverized cell (2.17 μM): 0 No.
- Quadriradial (2.17 μM): 3 No.
- Ring (2.17 μM): 1 No.
- Triradial (2.17 μM): 4 No.
- Average aberrant metaphases (%) (4.35 μM): 14.0 * %
- Chromatid break (No.) (4.35 μM): 1 No.
- Chromatid deletion (4.35 μM): 1 No.
- Complex rerrangement (4.35 μM): 0 No.
- Dicentric (4.35 μM): 0 No.
- Polyploid (4.35 μM): 1 No.
- Pulverized cell (4.35 μM): 1 No.
- Quadriradial (4.35 μM): 9 No.
- Ring (4.35 μM): 2 No.
- Triradial (4.35 μM): 13 No.
